Results on one molecule are retold here after US20090143328A1, “Method of Treating Cancer by Administration of Topical Active Corticosteroids” (priority 2001, published 2009).

What all share (type): in vivo, human
The test system of data set [1] is graft versus host disease (GVHD). Kind of data set: Randomized, double blind, placebo controlled trial of oral BDP: time to treatment failure (GVHD) through study days 50 and 80. As for the experimental part:
(§1) A randomized, prospective, double blind, placebo controlled, multi-center pivotal trial was conducted to evaluate beclomethasone dipropionate (BDP) as a treatment of cancer by enhancing the graft versus leukemia effect (GVL) while controlling graft versus host disease (GVHD) following hematopoietic stem cell transplant in blood-borne cancer patients. The trial was divided into two phases, the purpose was to monitor short term effectiveness of BDP to control graft versus host disease in the first phase and the second phase was to assess the effect of the drug treatment on long term survival due to recurrence of hematologic malignancy or other causes of death.
(§2) To minimize the exposure of patients to long term exposure to systemic corticosteroids (prednisone or prednisolone), which are used as the standard of care to prevent or treat symptoms of graft versus host disease in conjunction with other immunosuppressive drugs, patients were treated with an oral formulation of BDP. BDP was formulated as two separate oral dosage forms an immediate release (IR) tablet and an enteric coated (EC) tablet. 129 patients were enrolled and 67 patients were randomized to placebo and 62 to BDP, Patients were at least 10 days post allogeneic hematopoietic cell transplantation, had gastrointestinal symptoms consistent with Grade II GVHD, and had endoscopic evidence of GVHD. The diagnosis of GVHD was confirmed by biopsy of the intestine (esophagus, stomach, small intestine, or colon) or skin. After being diagnosed with GVHD, patients were started on standard prednisone therapy. Patients were administered 2 mg/kg/day or 1 mg/kg/day for 10 days as a starting dose. After 10 days at this initial dose, prednisone was tapered over 7 days, after which the patients were maintained on a maintenance physiologic replacement dose of prednisone of 0.0625 mg/kg/day or 0.125 mg/kg/day. Concurrently, patients received BDP at a dose of 2 mg four times daily, for a total dose of 8 mg, or placebo for a maximum of 50 days.
Patients were monitored at clinic visits for evidence of increase in symptoms of GVHD (primary treatment failure). The primary efficacy endpoint was the time to treatment failure through study day 50. Treatment failure was defined as a worsening or recurrence of GVHD of such degree as to require an increase in immunosuppressive therapy. A subject was defined as a treatment failure if the patient required prednisone or equivalent IV corticosteroids at doses higher than that specified in the protocol, in response to uncontrolled signs or symptoms of GVHD; or required additional immunosuppressant medications other than those permitted by the protocol in response to uncontrolled signs or symptoms of GVHD. The time to treatment failure was calculated as the number of days elapsed between the randomization date and the date on which the subject was first identified as a treatment failure by the investigator.
Secondary efficacy endpoints included: 1) the time to treatment failure through study day 80, 2) the proportion of subjects who experienced treatment failure by study days 10, 30, 50, 60, and 80, and 3) Karnofsky performance status scores.
(§3) The primary analysis of the primary and secondary efficacy endpoints was based on the intent-to-treat principle. The analysis of the primary efficacy endpoint was based on the Kaplan-Meier method and log-rank test stratified by source of allograft. Hypothesis tests of the primary and secondary efficacy endpoints were performed using a two-sided significance level of 0.05. No adjustments were made to the significance level for inferential tests of the secondary efficacy endpoints. All patients who received at least one dose of BDP or placebo were included in the assessment of safety.
The hazard ratio was estimated from a univariate Cox proportional hazards model. Placebo serves as the reference group.

For data set [2], the system named is graft versus leukemia effect (GVL). In words: Overall survival 200 days post-transplant in the same trial (Kaplan-Meier, Cox proportional hazards models). As for the experimental part:
as §1, §2
(§4) Safety was primarily assessed based on the following: 1) cumulative systemic corticosteroid exposure, 2) the incidence and degree of HPA axis suppression in patients who had not experienced treatment failure by study day 50, 3) rates of treatment-emergent adverse events, and 4) the overall survival rate 200 days post-transplant.
as §3
Based on a univariate time-dependent Cox proportional hazards model, the risk of mortality during this period was 68% lower following the initiation of treatment with BDP when compared to no treatment (hazard ratio 0.32; 95% CI: 0.12, 0.87; p=0.0252). A multivariate Cox model was used to evaluate the effect of BDP while simultaneously accounting for selected competing causes of mortality after hematopoietic cell transplant. The competing causes of mortality included the subject's age and gender, intensity of the conditioning regimen (myeloablative, non-myeloablative), primary diagnosis, transplant source (bone marrow, peripheral blood stem cells), and degree of HLA match, with greater benefit seen in the patients receiving non-myeloabaltive pre-conditioning.
The hazard ratio for each variable was estimated from a multivariate Cox proportional hazards model.

A short description of data set [3]: Safety assessment in the same trial. As to conditions: oral BDP 2 mg four times daily for 50 days plus prednisone induction vs placebo.
Description: as §4, §3

[4] abbreviates: Kaplan-Meier estimate, fraction, all randomized subjects.

SMILES strings stand for the structures.

Take `CCC(=O)OCC(=O)[C@@]1(OC(=O)CC)[C@@H](C)C[C@H]2[C@@H]3CCC4=CC(=O)C=C[C@]4(C)[C@@]3(Cl)[C@@H](O)C[C@@]21C` [BDP, beclomethasone dipropionate]: the “Reduction of risk of treatment failure relative to placebo, 50-day study treatment period” value in data set [1] (50-day study treatment period) is given as 37%. Also, in data set [1] (80-day study period), the “Increase of median time to treatment failure compared to placebo” value was “more than 28 days” and the “Reduction of risk of treatment failure relative to placebo, entire 80-day study period” value came out at 44%. In data set [1] (setting [4]), the “Treatment failure rate by Study Day 50” value is 0.31 and the “Treatment failure rate by Study Day 80” value was 0.39. In addition, in data set [1] (all randomized subjects), the “Median time to treatment failure (95% CI), through Study Day 50” value is “Not achieved” and the “Median time to treatment failure (95% CI), through Study Day 80” value was “Not achieved”. For the same molecule, the “Patients who met the treatment failure endpoint during the first 10 days of study treatment” value in data set [1] (first 10 days, all patients on high-dose prednisone) is listed as “Eight”. In addition, in data set [1] (intent-to-treat, BDP N = 62, 2 mg four times daily oral, with prednisone induction and taper), the “Number with treatment failure, through Study Day 50” value amounted to 18. Also, in data set [1] (intent-to-treat, BDP N = 62, includes 30-day post-treatment observation period), the “Number with treatment failure, through Study Day 80” value is 22. The “Share of the total number of treatment failures that occurred within the first 10 days of randomization” value in data set [1] (prior to the prednisone taper) was determined as 44%. Moreover, the “Cumulative treatment failure rate by study day 50” value in data set [1] (study day 50) was found to be 31%. For the same molecule, the “Cumulative treatment failure rate by study day 80” value in data set [1] (study day 80) turned out to be 39%. For the same molecule, in data set [2] (200 days post transplant), the “Relative reduction in mortality at 200 days post transplant” value was found to be 69%. Besides, in data set [2] (200 days post-transplant), the “Deaths with relapse of the underlying malignancy as primary cause, number of patients” value was 2 patients and the “Deaths with relapse of the underlying malignancy as primary cause, share of group” value came out at 3%. The “Hazard ratio, mortality, univariate time-dependent Cox model” value in data set [2] (200 days post-transplant, BDP vs no treatment) came to 0.32. Moreover, in data set [2] (Kaplan-Meier estimate, fraction), the “Overall survival rate 200 days post-transplant” value is on record as 0.91. Besides, in data set [2] (safety population), the “Coefficient (bi), multivariate proportional hazards model for overall survival 200 days post-transplant” value is given as −1.155. Moreover, in data set [2] (safety population, adjusted for competing causes of mortality), the “HR [exp(bi)], duration of overall survival 200 days post-transplant, multivariate Cox model” value was 0.32. Moreover, the “Lowering of risk of mortality following initiation of BDP compared to no treatment” value in data set [2] (univariate time-dependent Cox proportional hazards model, 200 days post-transplant) came to 68%. In addition, the Clinically significant toxicity in data set [3] is reported as “without an increase in clinically significant toxicity”.
